From US20110098309A1, “METHODS OF INHIBITING THE FORMATION OF AMYLOID-BETA DIFFUSABLE LIGANDS USING ACYLHYDRAZIDE COMPOUNDS” (priority 2007, published 2011)
pIC50: −log10 of the molar value.

The compounds below were run against Aβ1-42 (Homo sapiens, UniProt P05067) (assay: FRET assay of Aβ1-42 oligomer (ADDL) assembly inhibition). Details: 0.2 μM FITC-Aβ(1-42) and 0.8 μM Aβ(1-42), 37° C., six concentrations from about 10 μM to about 0.03 μM.
Assay type: biochemical
Excerpt: Fluorescence (or Förster) Resonance Energy Transfer (FRET) is a distance-dependent, non-radiative transfer of energy in which the de-excitation of one fluorophore (donor) is coupled to excitation of another fluorophore (acceptor). FRET occurs if (1) the quantum of energy emitted by a donor fluorophore corresponds to an acceptor fluorophore's excitation energy, (2) the orientations of donor and acceptor transition dipoles are nearly parallel and (3) the donor fluorescent emission spectrum overlaps the acceptor absorption spectrum.
In this assay, assembly of Aβ1-42 oligomer formation is monitored by FRET using N-terminal conjugates of fluorescein-Aβ1-42 as both the donor and acceptor fluorophore (fluorescein-fluorescein Ro˜45 Å). […] Inhibition of Aβ1-42 assembly is observed as the absence or attenuation of fluorescein quenching.
FRET and FP assays are performed in 384-well Corning Non-Binding Surface, black, opaque microtiter plates, and the assay buffer consists of 25 mM MOPS-Tris (pH 8.0) with 100 mM MgCl2. The assay volume, containing 0.2 μM FITC-Aβ(1-42) and 0.8 μM Aβ(1-42), is 50 μl and the temperature is 37° C. […] Kinetic traces are collected by recording fluorescence intensity and polarization readings every five minutes over about a three hour time course. […] Positive control reactions contain all buffer components in the absence of added small molecule or antibody reagents. To test for ADDL assembly inhibition, the compound was incubated with the peptide mixture at six concentrations from about 10 μM decreasing to about 0.03 μM.

Aβ1-42, sequence (P05067 672-713 limits assumed): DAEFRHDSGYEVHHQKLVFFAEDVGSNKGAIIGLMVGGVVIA

Row | pIC50 | Structure (SMILES)
1 | 5.38 | O=C(C/C(=N\NC(=O)c1ccccc1O)C(F)(F)F)c1ccco1 [Compound 1, 2-hydroxy-N′-(1,1,1-trifluoro-4-(furan-2-yl)-4-oxobutan-2-ylidene)benzohydrazide]
2 | 5.28 | O=C(N/N=C(/CC(=O)N1CCN(Cc2ccccc2)CC1)C(F)(F)F)c1ccccc1O [Compound 3, N′-(4-(4-benzylpiperazin-1-yl)-1,1,1-trifluoro-4-oxobulan-2-ylidene)-2-hydroxy-benzohydrazide]
3 | 5.23 | C/C(CC(=O)c1ccco1)=N\NC(=O)c1sc2cc(F)ccc2c1Cl [Compound 4, 3-chloro-6-fluoro-N′-(4-(furan-2-yl)-4-oxobutan-2-ylidene)benzo[b]-thiophene-2-carbohydrazide]
4 | 5.22 | CS(=O)(=O)Nc1ccccc1C(=O)N/N=C(/CC(=O)c1cccs1)C(F)(F)F [Compound 5, N-(2-(2-(1,1,1-trifluoro-4-oxo-4-(thiophen-2-yl)butan-2-ylidene)hydrazine-carbonyl)phenyl)methanesulfonamide]
5 | 5.15 | CN1CCN(C(=O)C/C(=N/NC(=O)c2ccccc2O)C(F)(F)F)CC1 [Compound 6, 2-hydroxy-N′-(1,1,1-trifluoro-4-(4-methylpiperazin-1-yl)-4-oxobutan-2-ylidene) benzohydrazide]
6 | 5.13 | CC(C)(C)C(=O)C/C(=N/NC(=O)c1ccccc1O)C(F)(F)F [Compound 7, 2-hydroxy-N′-(1,1,1-trifluoro-5,5-dimethyl-4-oxohexan-2-ylidene)benzohydrazide]
7 | 5.11 | O=C(C/C(=N/NC(=O)c1ccccc1O)C(F)(F)F)c1cc2ccccc2s1 [Compound 8, N′-(4-(benzo[b]thiophen-2-yl)-1,1,1-trifluoro-4-oxobutan-2-ylidene)-2-hydroxy benzohydrazide]
8 | 5.09 | Cn1nccc1C(=O)C/C(=N/NC(=O)c1ccccc1O)C(F)(F)F [Compound 9, 2-hydroxy-N′-(1,1,1-trifluoro-4-(1-methyl-1H-pyrazol-5-yl)-4-oxobutan-2-ylidene) benzohydrazide]
9 | 5.08 | Cc1ccc(C(=O)C/C(=N/NC(=O)c2sc3cc(F)ccc3c2Cl)C(F)(F)F)s1 [Compound 10, 3-chloro-6-fluoro-N′-(1,1,1-trifluoro-4-(5-methylthiophen-2-yl)-4-oxobutan-2-ylidene)benzo[b]thiophene-2-carbohydrazide]
10 | 5.08 | Cc1nnsc1C(=O)N/N=C(/CC(=O)c1cccs1)C(F)(F)F [Compound 11, 4-methyl-N′-(1,1,1-trifluoro-4-oxo-4-(thiophen-2-yl)butan-2-ylidene)-1,2,3-thiadiazole-5-carbohydrazide]
11 | 5.07 | CC(C)(C)C(=O)C/C(=N/NC(=O)c1sc2cc(F)ccc2c1Cl)C(F)(F)F [Compound 12, 3-chloro-6-fluoro-N′-(1,1,1-trifluoro-5,5-dimethyl-4-oxohexan-2-ylidene)benzo[b]thiophene-2-carbohydrazide]
12 | 5.04 | Cc1ccc(C(=O)C/C(=N/NC(=O)c2ccccc2O)C(F)(F)F)s1 [Compound 13, 2-hydroxy-N′-(1,1,1-trifluoro-4-(5-methylthiophen-2-yl)-4-oxobutan-2-ylidene) benzohydrazide]
13 | 5.02 | O=C(C/C(=N/NC(=O)c1sc2ccccc2c1Cl)C(F)(F)F)c1cccs1 [Compound 14, 3-chloro-N′-(1,1,1-trifluoro-4-oxo-4-(thiophen-2-yl)butan-2-ylidene)benzo[b]thiophene-2-carbohydrazide]
14 | 5.02 | O=C(C/C(=N\NC(=O)c1sc2ccccc2c1Cl)C(F)(F)F)c1ccco1 [Compound 15, 3-chloro-N′-(1,1,1-trifluoro-4-(furan-2-yl)-4-oxobutan-2-ylidene)benzo[b]thiophene-2-carbohydrazide]
15 | 5.01 | O=C(C/C(=N/NC(=O)c1ccccc1NS(=O)(=O)c1ccc(Cl)cc1)C(F)(F)F)c1cccs1 [Compound 16, 4-chloro-N-(2-(2-(1,1,1-trifluoro-4-oxo-4-(thiophen-2-yl)butan-2-ylidene) hydrazinecarbonyl)phenyl)benzenesulfonamide]
16 | 4.99 | O=C(C/C(=N/NC(=O)c1sc2cc(F)ccc2c1Cl)C(F)(F)F)c1cc2ccccc2s1 [Compound 17, N′-(4-(benzo[b]thiophen-2-yl)-1,1,1-trifluoro-4-oxobutan-2-ylidene)-3-chloro-6-fluorobenzo[b] thiophene-2-carbohydrazide]
17 | 4.98 | O=C(N/N=C(/CC(=O)N1CCOCC1)C(F)(F)F)c1ccccc1O [Compound 18, 2-hydroxy-N′-(1,1,1-trifluoro-4-morpholino-4-oxobutan-2-ylidene)benzohydrazide]
18 | 4.94 | O=C(C/C(=N/NC(=O)c1ccccc1O)C(F)(F)F)c1ccc(Cl)s1 [Compound 19, N′-(4-(5-chlorothiophen-2-yl)-1,1,1-trifluoro-4-oxobutan-2-ylidene)-2-hydroxy benzohydrazide]
19 | 4.92 | O=C(C/C(=N/NC(=O)c1cc(Cl)ccc1O)C(F)(F)F)c1cccs1 [Compound 20, 5-chloro-2-hydroxy-N′-(1,1,1-trifluoro-4-oxo-4-(thiophen-2-yl)butan-2-ylidene)benzohydrazide]
20 | 4.90 | Cc1csc(C(=O)N/N=C(/CC(=O)c2cccs2)C(F)(F)F)c1Cl [Compound 21, 3-chloro-4-methyl-N′-(1,1,1-trifluoro-4-oxo-4-(thiophen-2-yl)butan-2-ylidene)thiophene-2-carbohydrazide]
21 | 4.87 | O=C(C/C(=N/NC(=O)c1cccc2cc[nH]c12)C(F)(F)F)c1cccs1 [Compound 22, N′-(1,1,1-trifluoro-4-oxo-4-(thiophen-2-yl)butan-2-ylidene)-1H-indole-7-carbohydrazide]
22 | 4.80 | O=C(C/C(=N/NC(=O)c1sc2cc(F)ccc2c1Cl)C(F)(F)F)c1ccc(Cl)s1 [Compound 23, 3-chloro-N′-(4-(5-chlorothiophen-2-yl)-1,1,1-trifluoro-4-oxobulan-2-ylidene)-6-fluorobenzo[b]thiophene-2-carbohydrazide]
23 | 4.79 | O=C(C/C(=N/NC(=O)c1sc2cc(F)ccc2c1Cl)C(F)(F)F)c1cccs1 [Compound 24, 3-chloro-6-fluoro-N′-(1,1,1-trifluoro-4-oxo-4-(thiophen-2-yl)butan-2-ylidene)benzo[b]thiophene-2-carbohydrazide]
24 | 4.79 | Cc1cccc(C(=O)N/N=C(/CC(=O)c2cccs2)C(F)(F)F)c1O [Compound 25, 2-hydroxy-3-methyl-N′-(1,1,1-trifluoro-4-oxo-4-(thiophen-2-yl)butan-2-ylidene)benzohydrazide]
25 | 4.73 | O=C(N/N=C(/CC(=O)c1cccs1)C(F)(F)F)c1ccc(Br)cc1 [Compound 27, 4-bromo-N′-(1,1,1-trifluoro-4-oxo-4-(thiophen-2-yl)butan-2-ylidene)benzohydrazide]
26 | 4.71 | O=C(C/C(=N/NC(=O)c1cc2ccccc2s1)C(F)(F)F)c1cccs1 [Compound 28, N′-(1,1,1-trifluoro-4-oxo-4-(thiophen-2-yl)butan-2-ylidene)benzo[b]thiophene-2-carbohydrazide]
27 | 4.57 | C/C(CC(=O)N1CCC(c2ccccc2)CC1)=N\NC(=O)c1ccccc1O [Compound 29, 2-hydroxy-N′-(4-oxo-4-(4-phenylpiperidin-1-yl)butan-2-ylidene)benzohydrazide]
